Test results reported in patent US9399638B2, “Substituted pyridine compounds as CRAC modulators” (LUPIN LIMITED, priority 2012, dated 2016).

tested on: IL-2 secretion by Jurkat T cells; assay: Inhibition of IL-2 secretion; type: cell-based; details: Homo sapiens; Jurkat T cells stimulated with PHA, 20 to 24 hours, IL-2 by ELISA
Experimental: The CRAC channel modulatory activity of the compounds were thus evaluated by measuring the secretion of IL-2 by antigen stimulated T-cells in vitro. Alternatively, such activity can also be evaluated by assay methods known to one skilled in the art.
Inhibition of IL-2 secretion: Jurkat T cells were seeded at a density of 0.5 to 1 million cells per well in RPMI medium. Test compounds from this invention were added to the cells at different concentrations. This was followed by the addition of PHA, a T cell mitogen after 10 minutes. The cells were then incubated for 20 to 24 hours in a CO2 incubator at 37° C. After incubation with the compounds, cells were centrifuged, the supernatant was collected and processed for ELISA to quantitate the amount of IL-2 secreted. A commercial ELISA kit (R&D Systems, Inc. Minneapolis, Minn., USA) was used to estimate the IL-2 concentrations. Amount of IL-2 secreted by cells stimulated with PHA was considered as a 100% maximal signal and the decrease in amount of IL-2 secreted by cells treated with the test compounds was expressed as percent inhibition of the maximal signal. The dose response data was analyzed using 4-parametric sigmoidal dose response (variable slope) curve—fit.

SMILES	IC50 [nM]
Cn1nc(-c2cncc(-c3ccc(NC(=O)c4c(F)cccc4F)cc3)c2)oc1=O [Example 14, 2,6-Difluoro-N-(4-(5-(4-methyl-5-oxo-4,5-dihydro-1,3,4-oxadiazol-2-yl)pyridin-3-yl)phenyl)benzamide]	> 1000
Cc1cc(NC(=O)c2c(F)cccc2F)ccc1-c1cncc(-c2nn(C)c(=O)o2)c1 [Example 15, 2,6-Difluoro-N-(3-methyl-4-(5-(4-methyl-5-oxo-4,5-dihydro-1,3,4-oxadiazol-2-yl)pyridin-3-yl)phenyl)benzamide]	< 100
CCc1c(-c2ccc(C(=O)Nc3c(F)cccc3F)cc2)cncc1-c1nn(C)c(=O)o1 [Example 17, N-(2,6-Difluorophenyl)-4-(4-ethyl-5-(4-methyl-5-oxo-4,5-dihydro-1,3,4-oxadiazol-2-yl)pyridin-3-yl)benzamide]	> 1000
CCc1c(-c2nn(C)c(=O)o2)ccnc1-c1ccc(NC(=O)c2c(F)cccc2F)cc1 [Example 18, N-(4-(3-Ethyl-4-(4-methyl-5-oxo-4,5-dihydro-1,3,4-oxadiazol-2-yl)pyridin-2-yl)phenyl)-2,6-difluorobenzamide]	> 1000
Cc1c(-c2nn(C)c(=O)o2)ccnc1-c1ccc(NC(=O)c2c(F)cccc2F)cc1 [Example 20, 2,6-Difluoro-N-(4-(3-methyl-4-(4-methyl-5-oxo-4,5-dihydro-1,3,4-oxadiazol-2-yl)pyridin-2-yl)phenyl)benzamide]	> 1000
CCc1cnc(-c2ccc(C(=O)Nc3c(F)cccc3F)cc2)cc1-c1nn(C)c(=O)o1 [Example 22, N-(2,6-Difluorophenyl)-4-(5-ethyl-4-(4-methyl-5-oxo-4,5-dihydro-1,3,4-oxadiazol-2-yl)pyridin-2-yl)benzamide]	> 1000

Results, then the compound that gave them:

IC50 [nM]	SMILES
100 to 1000	CCc1c(-c2ccc(NC(=O)c3c(F)cccc3F)cc2)cncc1-c1nn(C)c(=O)o1 [Example 16, N-(4-(4-Ethyl-5-(4-methyl-5-oxo-4,5-dihydro-1,3,4-oxadiazol-2-yl)pyridin-3-yl)phenyl)-2,6-difluorobenzamide]
> 1000	CCc1c(-c2nn(C)c(=O)o2)ccnc1-c1ccc(C(=O)Nc2c(F)cccc2F)cc1 [Example 19, N-(2,6-Difluorophenyl)-4-(3-ethyl-4-(4-methyl-5-oxo-4,5-dihydro-1,3,4-oxadiazol-2-yl)pyridin-2-yl)benzamide]
> 1000	CCc1cnc(-c2ccc(NC(=O)c3c(F)cccc3F)cc2)cc1-c1nn(C)c(=O)o1 [Example 21, N-(4-(5-Ethyl-4-(4-methyl-5-oxo-4,5-dihydro-1,3,4-oxadiazol-2-yl)pyridin-2-yl)phenyl)-2,6-difluorobenzamide]
> 1000	Cc1cc(-c2nn(C)c(=O)o2)cc(-c2ccc(NC(=O)c3c(F)cccc3F)cc2)n1 [Example 23, 2,6-Difluoro-N-(4-(6-methyl-4-(4-methyl-5-oxo-4,5-dihydro-1,3,4-oxadiazol-2-yl)pyridin-2-yl)phenyl)benzamide]
> 1000	Cn1nc(-c2cc(Cl)cc(-c3ccc(NC(=O)c4c(F)cccc4F)cc3)n2)oc1=O [Example 24, N-(4-(4-Chloro-6-(4-methyl-5-oxo-4,5-dihydro-1,3,4-oxadiazol-2-yl)pyridin-2-yl)phenyl)-2,6-difluorobenzamide]
> 1000	CCOc1cc(-c2ccc(NC(=O)c3c(F)cccc3F)cc2)nc(-c2nn(C)c(=O)o2)c1 [Example 25, N-(4-(4-Ethoxy-6-(4-methyl-5-oxo-4,5-dihydro-1,3,4-oxadiazol-2-yl)pyridin-2-yl)phenyl)-2,6-difluorobenzamide]
> 1000	Cn1nc(-c2cc(-c3ccc(NC(=O)c4c(F)cccc4F)cc3)ccn2)oc1=O [Example 26, 2,6-Difluoro-N-(4-(2-(4-methyl-5-oxo-4,5-dihydro-1,3,4-oxadiazol-2-yl)pyridin-4-yl)phenyl)benzamide]
100 to 1000	Cc1cc(-c2nn(C)c(=O)o2)ncc1-c1ccc(NC(=O)c2c(F)cccc2F)cc1 [Example 27, 2,6-Difluoro-N-(4-(4-methyl-6-(4-methyl-5-oxo-4,5-dihydro-1,3,4-oxadiazol-2-yl)pyridin-3-yl)phenyl)benzamide]
